Among the test systems are SW-620 colon; LOX IMVI melanoma; M14 melanoma; K-562 leukemia; SF-295 CNS; HT29 colon; HCT-116 colon; PC-3 prostate; SF-539 CNS; MDA-MB-435.
Assay in all cases: inhibition of tumour cell growth, NCI panel, 48 h

The text below walks through data of PubChem BioAssay (NCI).

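A five-concentration, 48-hour dose response in 96-well plates underlies each endpoint, interpolated linearly between surrounding concentrations. GI50: concentration for 50% inhibition of growth. TGI is the concentration that stops growth completely.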

`COc1ccc(C2=CC(c3cc(OC)c(OC)c(OC)c3)n3ncnc3N2)cc1` (stereo not drawn): the GI50 in the test with SW-620 colon is 0.0484 µM; in the test on LOX IMVI melanoma, 0.0898 µM; in the test on M14 melanoma, 0.0333 µM; in the test on K-562 leukemia, 0.0359 µM; in the test with SF-295 CNS it was 0.0228 µM; in the test on HT29 colon it was 0.0381 µM. Further, the GI50 with HCT-116 colon is 0.0401 µM; with PC-3 prostate, 0.0536 µM. Besides, the TGI in the test on SW-620 colon was above 100 µM; with LOX IMVI melanoma it was above 100 µM; in the test on M14 melanoma, above 100 µM; with K-562 leukemia, above 100 µM; in the test with SF-295 CNS, 0.0742 µM; in the test with HT29 colon, 11.2 µM. Besides, the TGI in the test with HCT-116 colon and in the test with PC-3 prostate was above 100 µM throughout.

Consider `O=C(N[C@@H]1CCCc2ccccc21)[C@H](CCC(=O)N1CCN(C2CCCCC2)CC1)N1C(=O)[C@@H](N2C(=O)OC[C@@H]2c2ccccc2)[C@H]1/C=C/c1ccccc1`, for which the GI50 with SW-620 colon was 3.06 µM; in the test with LOX IMVI melanoma, 1.68 µM; with M14 melanoma it was 1.47 µM; in the test on SF-295 CNS, 2.34 µM; with HT29 colon it was 1.99 µM; with HCT-116 colon, 1.8 µM. Besides, the GI50 with PC-3 prostate was 2.32 µM; with SF-539 CNS, 1.74 µM; with MDA-MB-435 it was 1.35 µM. Moreover, the TGI came to 10.8 µM in the test on SW-620 colon; 3.41 µM in the test with LOX IMVI melanoma; 3.31 µM in the test on M14 melanoma; 7.57 µM in the test with SF-295 CNS; 5.21 µM with HT29 colon; 4.68 µM in the test with HCT-116 colon. For the same compound, the TGI with PC-3 prostate is 8.35 µM; with SF-539 CNS, 3.42 µM; with MDA-MB-435, 2.72 µM.

On to `COc1ccc2c(c1O)[C@@]13C=C(O)C(=O)C=C1[C@@H](C2)N(C)CC3`, for which the TGI in the test with LOX IMVI melanoma, in the test on M14 melanoma, with K-562 leukemia, with SF-295 CNS, with HT29 colon and in the test on HCT-116 colon was above 100 µM throughout. Further, the TGI in the test on PC-3 prostate and in the test with MDA-MB-435 was above 100 µM in each case.

With `COc1ccc(C[C@H]2C[C@@H](O)[C@@H](C)C/C=C/Cc3cccc(O)c3C(=O)O2)cn1`, the GI50 in the test with SW-620 colon is 31.6 µM; in the test with LOX IMVI melanoma, 19.1 µM; in the test with M14 melanoma, 18.7 µM; with K-562 leukemia, 12.2 µM; in the test on SF-295 CNS it was 18 µM; in the test with HT29 colon, 31 µM. Besides, the GI50 in the test on HCT-116 colon was 19.5 µM; with SF-539 CNS it was 17.9 µM; in the test on MDA-MB-435 it was 19.9 µM. Moreover, the TGI in the test on SW-620 colon is above 100 µM; in the test with LOX IMVI melanoma it was 37.7 µM; with M14 melanoma, 36.6 µM; in the test with K-562 leukemia it was 28.6 µM; in the test on SF-295 CNS, 41.5 µM; in the test with HT29 colon it was above 100 µM. Further, the TGI in the test on HCT-116 colon is 37.6 µM; in the test with SF-539 CNS, 37.8 µM; in the test with MDA-MB-435, 46.6 µM.

Turning to `Cc1nnc([S-])s1.[Au+].c1ccc([PH+](c2ccccc2)c2ccccc2)cc1`, the GI50 was 1.44 µM in the test with LOX IMVI melanoma; 1.62 µM with M14 melanoma; 1.74 µM in the test on SF-295 CNS; 1.52 µM in the test on PC-3 prostate; 1.63 µM in the test on SF-539 CNS; 1.7 µM with MDA-MB-435. The TGI in the test on LOX IMVI melanoma was 2.82 µM; in the test with M14 melanoma, 3.56 µM; with SF-295 CNS it was 3.21 µM; in the test on PC-3 prostate it was 2.92 µM; in the test with SF-539 CNS it was 3 µM; with MDA-MB-435, 3.18 µM.

In the case of `CCCC/C(=N\N=C(N)N)c1ccc(F)cc1`, the GI50 in the test with LOX IMVI melanoma is 1.33 µM; with M14 melanoma, 2.35 µM; in the test on K-562 leukemia it was 0.469 µM; with SF-295 CNS, 2.84 µM; with HT29 colon, 2.23 µM; in the test on HCT-116 colon, 3.51 µM. Further, the GI50 in the test on PC-3 prostate was 2.85 µM; with SF-539 CNS it was 2.77 µM; in the test with MDA-MB-435, 0.381 µM. Also, the TGI turned out to be 13.5 µM in the test on LOX IMVI melanoma; 10.4 µM in the test on M14 melanoma; 11.2 µM in the test on K-562 leukemia; 12.3 µM with SF-295 CNS; 14.6 µM with HCT-116 colon; 14.3 µM with PC-3 prostate. Moreover, the results for the TGI in the test on SF-539 CNS and in the test with MDA-MB-435 were 8.59 µM and 2.22 µM, respectively.

For the compound `COC(=O)c1cc(Nc2ccc(O)c3c2C(=O)c2c([N+](=O)[O-])ccc(O)c2C3=O)cc(C(=O)OC)c1`, the GI50 with SW-620 colon was 3.3 µM; in the test with LOX IMVI melanoma, 6.39 µM; in the test on M14 melanoma, 3.15 µM; with K-562 leukemia, 27.2 µM; with SF-295 CNS, 21.8 µM; in the test on HT29 colon, 8.21 µM. The GI50 with HCT-116 colon was 4.17 µM; with PC-3 prostate, 13.5 µM; in the test with SF-539 CNS, 60 µM. The TGI with SW-620 colon, with LOX IMVI melanoma, in the test with M14 melanoma, with K-562 leukemia, with SF-295 CNS and with HT29 colon was above 100 µM each time. The TGI in the test with HCT-116 colon, in the test on PC-3 prostate and in the test with SF-539 CNS was above 100 µM each time.

For `O=C(OCc1ccccc1CN1CCOCC1)c1ccc(Br)cc1`, the TGI with SW-620 colon is above 100 µM; in the test on LOX IMVI melanoma, above 100 µM; in the test with M14 melanoma, above 100 µM; in the test with HT29 colon, 44.2 µM; in the test on HCT-116 colon, above 100 µM; in the test with PC-3 prostate, above 100 µM. Further, the TGI in the test on SF-539 CNS is above 100 µM; in the test on MDA-MB-435 it was 95.2 µM.

With `CN1CCCC1c1cccnc1.O=C(O)c1ccccc1O.O=C([O-])c1ccccc1[OH2+].O=C([O-])c1ccccc1[OH2+].O=C([O-])c1ccccc1[OH2+].[Mn+2]` (stereo not drawn), the GI50 in the test with SW-620 colon was 42.4 µM; in the test on LOX IMVI melanoma it was above 100 µM; in the test with M14 melanoma it was above 100 µM; in the test with K-562 leukemia, above 100 µM; with SF-295 CNS, above 100 µM; in the test on HT29 colon it was above 100 µM. Moreover, the figures for the GI50 in the test on HCT-116 colon, in the test with PC-3 prostate and in the test with MDA-MB-435 were above 100 µM, 95.5 µM and above 100 µM, respectively. For the same compound, the TGI in the test on SW-620 colon, with LOX IMVI melanoma, in the test on M14 melanoma, in the test with K-562 leukemia, in the test with SF-295 CNS and in the test on HT29 colon was above 100 µM each time. The TGI in the test with HCT-116 colon, in the test with PC-3 prostate and in the test on MDA-MB-435 was above 100 µM throughout.
